Data: patent US20250368647A1, “NITROGEN CONTAINING CONDENSED 2,3-DIHYDROQUINAZOLINONE COMPOUNDS AS NAV1.8 INHIBITORS” (GLAXOSMITHKLINE INTELLECTUAL PROPERTY DEVELOPMENT LIMITED, priority 2022, published 2025)

Target: human Nav1.8 (Homo sapiens (Human), UniProt Q9Y5Y9)
Experiment: QPatch 48 HTX voltage-clamp electrophysiology, half inactivation state (V1/2) protocol, HEK293-Nav1.8 cells
Format: cell-based
Settings: HEK293 cells expressing human Nav1.8, human Navβ1 and human TREK1, P2 current
Procedure, shortened: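 HEK293 cells co-expressing Navβ1 and TREK1 were voltage-clamped from −100 mV: a 20 ms step to 0 mV, 8 s inactivation at −46 mV, 20 ms at −100 mV, then a 20 ms P2 test step to 0 mV, repeated every 15 s. P2 current was normalized to vehicle and full block, corrected for run-down, and Hill-fitted (4–6 concentrations) for IC50.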

human Nav1.8, sequence (Q9Y5Y9 whole entry): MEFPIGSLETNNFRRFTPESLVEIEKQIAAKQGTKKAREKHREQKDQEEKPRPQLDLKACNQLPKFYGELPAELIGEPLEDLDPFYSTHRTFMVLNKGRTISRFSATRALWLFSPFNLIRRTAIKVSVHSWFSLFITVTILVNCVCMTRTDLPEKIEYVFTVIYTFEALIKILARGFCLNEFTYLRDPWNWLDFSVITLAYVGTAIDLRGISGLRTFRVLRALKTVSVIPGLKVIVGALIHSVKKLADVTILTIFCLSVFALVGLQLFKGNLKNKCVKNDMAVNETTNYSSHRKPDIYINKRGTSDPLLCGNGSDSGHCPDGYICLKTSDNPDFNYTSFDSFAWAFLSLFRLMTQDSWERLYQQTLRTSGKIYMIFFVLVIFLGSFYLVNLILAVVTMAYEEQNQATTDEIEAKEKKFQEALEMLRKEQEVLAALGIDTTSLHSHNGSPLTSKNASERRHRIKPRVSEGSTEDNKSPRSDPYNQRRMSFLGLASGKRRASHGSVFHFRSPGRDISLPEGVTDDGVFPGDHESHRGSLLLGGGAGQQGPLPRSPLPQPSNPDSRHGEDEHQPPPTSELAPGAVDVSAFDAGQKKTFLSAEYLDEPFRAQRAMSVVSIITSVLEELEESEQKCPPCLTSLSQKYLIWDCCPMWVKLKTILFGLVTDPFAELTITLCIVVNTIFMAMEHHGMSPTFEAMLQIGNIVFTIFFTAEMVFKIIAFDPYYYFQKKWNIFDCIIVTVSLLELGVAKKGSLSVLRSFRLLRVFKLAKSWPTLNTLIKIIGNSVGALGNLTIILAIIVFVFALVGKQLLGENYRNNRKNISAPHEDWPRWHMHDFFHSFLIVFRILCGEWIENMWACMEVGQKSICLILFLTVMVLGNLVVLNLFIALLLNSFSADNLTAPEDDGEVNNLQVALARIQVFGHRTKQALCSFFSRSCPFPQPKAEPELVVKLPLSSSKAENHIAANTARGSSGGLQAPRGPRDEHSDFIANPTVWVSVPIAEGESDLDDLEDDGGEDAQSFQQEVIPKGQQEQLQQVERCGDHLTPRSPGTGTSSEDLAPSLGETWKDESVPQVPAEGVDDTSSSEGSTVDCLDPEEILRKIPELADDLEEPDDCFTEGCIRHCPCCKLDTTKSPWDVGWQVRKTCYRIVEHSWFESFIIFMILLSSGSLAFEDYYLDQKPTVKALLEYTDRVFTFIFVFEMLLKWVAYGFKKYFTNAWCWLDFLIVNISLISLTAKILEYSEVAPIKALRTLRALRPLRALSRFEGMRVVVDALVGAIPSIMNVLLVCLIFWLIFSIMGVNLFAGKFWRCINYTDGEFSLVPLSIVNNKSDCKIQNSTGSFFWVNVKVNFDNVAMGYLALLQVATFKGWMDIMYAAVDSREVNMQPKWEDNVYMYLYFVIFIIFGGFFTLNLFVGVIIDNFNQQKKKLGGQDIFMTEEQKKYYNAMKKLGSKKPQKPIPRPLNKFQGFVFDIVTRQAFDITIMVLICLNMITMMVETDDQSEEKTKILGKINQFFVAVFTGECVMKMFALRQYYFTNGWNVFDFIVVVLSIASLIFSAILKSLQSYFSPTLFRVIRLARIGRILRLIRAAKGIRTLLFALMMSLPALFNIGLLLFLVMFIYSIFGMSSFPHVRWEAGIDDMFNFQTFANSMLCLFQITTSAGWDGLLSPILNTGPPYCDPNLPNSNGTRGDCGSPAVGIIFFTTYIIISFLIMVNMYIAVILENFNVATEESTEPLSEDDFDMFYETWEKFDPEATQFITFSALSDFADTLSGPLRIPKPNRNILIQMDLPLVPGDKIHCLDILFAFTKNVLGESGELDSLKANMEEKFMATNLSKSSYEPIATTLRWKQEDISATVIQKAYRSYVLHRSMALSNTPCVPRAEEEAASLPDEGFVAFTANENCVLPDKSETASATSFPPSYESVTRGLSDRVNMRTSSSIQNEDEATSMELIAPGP
human Nav1.8, sequence (Q07699 19-218 partner): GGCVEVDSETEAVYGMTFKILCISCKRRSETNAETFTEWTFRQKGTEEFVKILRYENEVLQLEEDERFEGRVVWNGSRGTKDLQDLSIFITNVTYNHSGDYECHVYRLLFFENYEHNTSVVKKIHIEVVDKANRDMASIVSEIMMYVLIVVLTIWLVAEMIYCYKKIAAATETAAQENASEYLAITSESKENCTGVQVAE

Row | Nav1.8, pIC50 | SMILES
1 | 8.1 | Cl.O=C1c2cc(F)c(C(F)(F)F)cc2N2CN1c1ccc(=O)[nH]c1CCNCc1c2ccc(F)c1F [Example 48, 2,8,9-Trifluoro-3-(trifluoromethyl)-10,11,12,13-tetrahydro-19H-5,18-methanodibenzo[c,f]pyrido[3,2-j][1,5,9]triazacyclotridecine-15,19(14H)-dione hydrochloride]
2 | 8 | Cl.O=C1c2cc(F)c(Cl)cc2N2CN1c1ccc(=O)[nH]c1CCNCc1cc(F)ccc12 [Example 46, 3-Chloro-2,8-difluoro-10,11,12,13-tetrahydro-19H-5,18-methanodibenzo[c,f]pyrido[3,2-j][1,5,9]triazacyclotridecine-15,19(14H)-dione, hydrochloride]
3 | 6.0 | O=C1c2cc(C(F)(F)F)ncc2N2CN1c1ccc(=O)[nH]c1CCCCc1cc(F)ccc12 [Example 40, 8-Fluoro-2-(trifluoromethyl)-10,11,12,13-tetrahydro-19H-5,18-methanobenzo[l]dipyrido[3,4-b:3′,2′-f][1,5]diazocyclotridecine-15,19(14H)-dione]
4 | 6.7 | Cl.O=C1c2cc(C(F)(F)F)ccc2N2CN1c1ccc(=O)[nH]c1CCNCc1ccccc12 [Example 78, 2-(Trifluoromethyl)-10,11,12,13-tetrahydro-19H-5,18-methanodibenzo[c,f]pyrido[3,2-j][1,5,9]triazacyclotridecine-15,19(14H)-dione hydrochloride]
5 | 6 | CNc1cc2c(cc1F)C(=O)N1CN2c2ccc(F)cc2CNCCc2[nH]c(=O)ccc21 [Example 54, 2,8-Difluoro-3-(methylamino)-10,11,12,13-tetrahydro-19H-5,18-methano-dibenzo[c,f]pyrido[3,2-j][1,5,9]triazacyclotridecine-15,19(14H)-dione]
6 | 8.8 | Cl.O=C1c2cc(Cl)c(C(F)(F)F)cc2N2CN1c1ccc(=O)[nH]c1CCNCc1c2ccc(F)c1F [Example 60, 2-Chloro-8,9-difluoro-3-(trifluoromethyl)-10,11,12,13-tetrahydro-19H-5,18-methanodibenzo[c,f]pyrido[3,2-j][1,5,9]triazacyclotridecine-15,19(14H)-dione hydrochloride]
7 | 6.8 | CC1CCc2c(ccc(F)c2F)N2CN(C(=O)c3cc(F)c(C(F)(F)F)cc32)c2ccc(=O)[nH]c2N1 (stereo not shown) [Example 130, 2,8,9-Trifluoro-12-methyl-3-(trifluoromethyl)-10,11,12,13-tetrahydro-19H-5,18-methanodibenzo[f,i]pyrido[2,3-b][1,4,8]triazacyclotridecin-15,19(14H)-dione]
8 | 7.3 | Cl.O=C1c2cc(F)c(F)cc2N2CN1c1ccc(=O)[nH]c1CCNCc1c2ccc(Cl)c1F [Example 74, 8-Chloro-2,3,9-trifluoro-10,11,12,13-tetrahydro-19H-5,18-methanodibenzo-[c,f]pyrido[3,2-j][1,5,9]triazacyclotridecine-15,19(14H)-dione hydrochloride]
9 | 7.8 | Cl.O=C1c2cc(F)c(C(F)(F)F)cc2N2CN1c1ccc(=O)[nH]c1CNCCCc1cc(F)ccc12 [Example 105, 2^6,3^4-Difluoro-2^7-(trifluoromethyl)-1^1,1^2,2^1,2^2,2^3,2^4-hexahydro-7-aza-2(3,1)-quinazolina-1(5,6)-pyridina-3(1,2)-benzenacyclooctaphane-1^2,2^4-dione hydrochloride]
10 | 6.2 | CN1CCc2cc(F)ccc2N2CN(C(=O)c3cc(F)c(C(F)(F)F)cc32)c2ccc(=O)[nH]c2CC1 [Example 112, 2^6,3^4-Difluoro-6-methyl-2^7-(trifluoromethyl)-1^1,1^2,2^1,2^2,2^3,2^4-hexahydro-6-aza-2(3,1)-quinazolina-1(5,6)-pyridina-3(1,2)-benzenacyclooctaphane-1^2,2^4-dione]
